This passage reports MIC values results from patent US7732460B2 (priority 2005, dated 2010).

The subject of the assay is panel of Gram-positive organisms (Staphylococcus aureus, Streptococcus pneumoniae, Streptococcus pyogenes, Enterococcus faecalis, Enterococcus faecium) and …. Type of assay: cell-based, Gram-positive and Gram-negative bacteria. The note with it: against all of the strains representing the organisms listed; serial two-fold dilutions 0.016 to 16 mcg/mL.

The molecule `COc1cnc2ccc(=O)n3c2c1[C@](O)(CN1CCC(NCc2cc4c(nn2)OCCO4)CC1)C3` [Example 66] yielded an MIC values of over 16 µg/mL.
